According to patent US20260007681A1, “INDOLE DERIVATIVES AS ESTROGEN RECEPTOR DEGRADERS” (REGENTS OF THE UNIVERSITY OF MICHIGAN, priority 2022, published 2026):

Columns and labels:
[1] = Cell growth assay (WST-8) (Compounds B1-B278); format: cell-based; settings: 96 h; T47D cell line; WST-8, 4 days; read-out: Cell Growth Inhibition in T47D cell line IC50
Outline: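 Read-out is WST-8 absorbance at 450 nm (2.5 h, 37° C) as a fraction of vehicle control, from three separate repeats. Compound exposure lasted 4 days, starting one day after plating 1500 cells/well.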

[2] = molecular target: ER (Homo sapiens (Human), UniProt P03372); experiment: In-cell western blot analysis of relative ER percentage (Compounds B1-B278); format: cell-based; settings: ER degradation, 16 hours, read-out: ICW DC50
Outline: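 In-cell western: after 16 h compound exposure (0.5% DMSO final), fixed and permeabilized cells are probed with anti-ER plus anti-GAPDH and near-infrared secondaries. Relative ER percentage compares treated wells against untreated and DMSO wells taken as 100%; seeding 40,000 or 10,000 cells/well.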

ER, sequence (P03372 whole entry): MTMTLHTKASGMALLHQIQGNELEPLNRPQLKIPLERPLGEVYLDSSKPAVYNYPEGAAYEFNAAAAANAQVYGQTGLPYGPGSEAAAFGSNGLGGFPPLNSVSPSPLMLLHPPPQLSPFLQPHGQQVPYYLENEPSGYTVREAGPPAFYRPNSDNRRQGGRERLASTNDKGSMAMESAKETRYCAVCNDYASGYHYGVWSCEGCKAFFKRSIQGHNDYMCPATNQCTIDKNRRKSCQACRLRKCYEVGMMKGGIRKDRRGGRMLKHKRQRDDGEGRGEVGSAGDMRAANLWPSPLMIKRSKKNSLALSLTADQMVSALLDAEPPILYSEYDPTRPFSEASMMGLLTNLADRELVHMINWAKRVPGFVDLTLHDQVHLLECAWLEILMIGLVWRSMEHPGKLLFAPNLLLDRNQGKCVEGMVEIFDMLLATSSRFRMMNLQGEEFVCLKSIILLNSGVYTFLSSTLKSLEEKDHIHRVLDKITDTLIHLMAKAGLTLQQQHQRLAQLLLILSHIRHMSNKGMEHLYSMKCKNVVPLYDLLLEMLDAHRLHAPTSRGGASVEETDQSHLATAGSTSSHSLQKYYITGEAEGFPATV

| Compound | IC50 [1] | DC50 [2] |
| --- | --- | --- |
| C[C@@H]1Cc2c([nH]c3ccccc23)[C@@H](c2cnc(N3CCC4(CC3)CN(C(=O)CN3CCN5c6ccc7c(c6OC[C@H]5C3)CN(C3CCC(=O)NC3=O)C7=O)C4)nc2)N1CC(F)F (stereo partly drawn) [Compound B176, 3-((R)-7-(2-(7-(5-((1R,3R)-2-(2,2-difluoroethyl)-3-methyl-2,3,4,9-tetrahydro-1H-pyrido[3,4-b]indol-1-yl)pyrimidin-2-yl)-2,7-diazaspiro[3.5]nonan-2-yl)-2-oxoethyl)-1-oxo-1,3,5,5a,6,7,8,9-octahydro-2H-pyrazino[1′,2′:4,5][1,4]oxazino[2,3-e]isoindol-2-yl)piperidine-2,6-dione] | 1 to 10 nM | < 10 nM |
| C[C@@H]1Cc2c([nH]c3ccccc23)[C@@H](c2c(F)cc(N3CCC4(CC3)CN(CC(=O)N3CCN5c6ccc7c(c6OC[C@H]5C3)CN(C3CCC(=O)NC3=O)C7=O)C4)cc2F)N1CC(F)F (stereo partly drawn) [Compound B177, 3-((R)-7-(2-(7-(4-((1R,3R)-2-(2,2-difluoroethyl)-3-methyl-2,3,4,9-tetrahydro-1H-pyrido[3,4-b]indol-1-yl)-3,5-difluorophenyl)-2,7-diazaspiro[3.5]nonan-2-yl)acetyl)-1-oxo-1,3,5,5a,6,7,8,9-octahydro-2H-pyrazino[1′,2′:4,5][1,4]oxazino[2,3-e]isoindol-2-yl)piperidine-2,6-dione] | < 1 nM | 10 to 100 nM |
| C[C@@H]1Cc2c([nH]c3ccccc23)[C@@H](c2cnc(N3CC4(CC(CN5CCN6c7ccc8c(c7OC[C@H]6C5)CN(C5CCC(=O)NC5=O)C8=O)C4)C3)nc2)N1CC(C)(F)F (stereo partly drawn) [Compound B178, 3-((R)-7-((2-(5-((1R,3R)-2-(2,2-difluoropropyl)-3-methyl-2,3,4,9-tetrahydro-1H-pyrido[3,4-b]indol-1-yl)pyrimidin-2-yl)-2-azaspiro[3.3]heptan-6-yl)methyl)-1-oxo-1,3,5,5a,6,7,8,9-octahydro-2H-pyrazino[1′,2′:4,5][1,4]oxazino[2,3-e]isoindol-2-yl)piperidine-2,6-dione] | 1 to 10 nM | 10 to 100 nM |
| C[C@@H]1Cc2c([nH]c3ccccc23)[C@@H](c2cnc(N3CC4(CC(CN5CCN6c7ccc8c(c7OC[C@H]6C5)CN(C5CCC(=O)NC5=O)C8=O)C4)C3)nc2)N1CC(F)F (stereo partly drawn) [Compound B179, 3-((R)-7-((2-(5-((1R,3R)-2-(2,2-difluoroethyl)-3-methyl-2,3,4,9-tetrahydro-1H-pyrido[3,4-b]indol-1-yl)pyrimidin-2-yl)-2-azaspiro[3.3]heptan-6-yl)methyl)-1-oxo-1,3,5,5a,6,7,8,9-octahydro-2H-pyrazino[1′,2′:4,5][1,4]oxazino[2,3-e]isoindol-2-yl)piperidine-2,6-dione] | > 10 nM | 10 to 100 nM |
| C[C@@H]1Cc2c([nH]c3ccccc23)[C@@H](c2cnc(N3CCC4(CC3)CC(CN3CCN5c6ccc7c(c6OC[C@H]5C3)CN(C3CCC(=O)NC3=O)C7=O)C4)nc2)N1CC(C)(C)F (stereo partly drawn) [Compound B180, 3-((R)-7-((7-(5-((1R,3R)-2-(2-fluoro-2-methylpropyl)-3-methyl-2,3,4,9-tetrahydro-1H-pyrido[3,4-b]indol-1-yl)pyrimidin-2-yl)-7-azaspiro[3.5]nonan-2-yl)methyl)-1-oxo-1,3,5,5a,6,7,8,9-octahydro-2H-pyrazino[1′,2′:4,5][1,4]oxazino[2,3-e]isoindol-2-yl)piperidine-2,6-dione] | 1 to 10 nM | < 10 nM |
| C[C@@H]1Cc2c([nH]c3ccccc23)[C@@H](c2cnc(N3CCC4(CC3)CC(CN3CCN5c6ccc7c(c6OC[C@H]5C3)CN(C3CCC(=O)NC3=O)C7=O)C4)nc2)N1CC(F)F (stereo partly drawn) [Compound B181, 3-((R)-7-((7-(5-((1R,3R)-2-(2,2-difluoroethyl)-3-methyl-2,3,4,9-tetrahydro-1H-pyrido[3,4-b]indol-1-yl)pyrimidin-2-yl)-7-azaspiro[3.5]nonan-2-yl)methyl)-1-oxo-1,3,5,5a,6,7,8,9-octahydro-2H-pyrazino[1′,2′:4,5][1,4]oxazino[2,3-e]isoindol-2-yl)piperidine-2,6-dione] | < 1 nM | < 10 nM |
